pIC50: −log10 of the molar value.
How the values were obtained:
[1] = Genotoxicity in Salmonella typhimurium TA98 by Ames test; assay type: toxicity; settings: salmonella enterica subsp. enterica serovar typhimurium
[2] = Stability in monkey liver microsomes assessed as half life at 1 uM measured upto 60 mins in presence of NADPH by LC-MS/MS analysis; assay type: ADME, Macaca mulatta, Microsome; settings: rhesus monkey
[3] = Toxicity in cynomolgous monkey administered daily for 28 days; design: species or system Macaca fascicularis; settings: cynomolgus monkey, in vivo; time 28 day
[4] = Oral bioavailability in Beagle dog at 5 mg/kg measured upto 24 hrs by LC-MS/MS analysis; assay type: ADME, organism-based, Canis lupus familiaris; settings: in vivo
[5] = Volume of distribution at steady state in Beagle dog at 5 mg/kg, po or 1 mg/kg, iv measured upto 24 hrs by LC-MS/MS analysis; assay type: ADME, organism-based, Canis lupus familiaris; settings: in vivo
[6] = AUC (last) in Tufted capuchin monkey at 100 mg/kg, po measured for 24 hrs by LC-MS/MS analysis; assay type: ADME, organism-based; settings: sapajus apella, in vivo
[7] = Toxicity in rat; settings: in vivo
Sapajus apella = assay: Urate lowering effect in Tufted capuchin monkey assessed as urine xanthine level at 30 mg/kg/day, po qd for 3 days consecutively; assay type: functional; settings: time 3 day
Cytochrome P450 2D6 = Cytochrome P450 2D6 (Homo sapiens, UniProt P10635); assay: Inhibition of CYP2D6 in human liver microsomes in presence of NADPH by LC-MS/MS analysis; assay type: ADME, Microsome
Cytochrome P450 2D6, sequence (P10635 whole entry): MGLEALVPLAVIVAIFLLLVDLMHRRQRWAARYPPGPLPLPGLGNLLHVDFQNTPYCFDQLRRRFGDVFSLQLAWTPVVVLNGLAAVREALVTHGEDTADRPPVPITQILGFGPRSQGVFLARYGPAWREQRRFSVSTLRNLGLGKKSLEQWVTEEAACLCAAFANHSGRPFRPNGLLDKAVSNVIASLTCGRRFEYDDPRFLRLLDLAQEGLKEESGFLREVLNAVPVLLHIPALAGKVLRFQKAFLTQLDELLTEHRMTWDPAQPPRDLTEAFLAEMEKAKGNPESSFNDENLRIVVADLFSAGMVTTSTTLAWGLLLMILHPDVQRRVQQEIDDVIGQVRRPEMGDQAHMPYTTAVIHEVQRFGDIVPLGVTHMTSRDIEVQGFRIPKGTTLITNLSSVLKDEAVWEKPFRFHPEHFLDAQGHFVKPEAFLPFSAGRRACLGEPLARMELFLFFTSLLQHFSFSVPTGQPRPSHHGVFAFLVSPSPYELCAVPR

[8] = Clearance in overnight-fasted Sprague-Dawley rat at 1 mg/kg, iv measured upto 24 hrs by LC-MS/MS analysis; assay type: ADME, organism-based; settings: in vivo
[9] = target: Voltage-gated inwardly rectifying potassium channel KCNH2 (Homo sapiens, UniProt Q12809); assay: Inhibition of hERG transfected in HEK293 cells by patch clamp assay; assay type: toxicity, cell-based
Voltage-gated inwardly rectifying potassium channel KCNH2, sequence (Q12809 whole entry): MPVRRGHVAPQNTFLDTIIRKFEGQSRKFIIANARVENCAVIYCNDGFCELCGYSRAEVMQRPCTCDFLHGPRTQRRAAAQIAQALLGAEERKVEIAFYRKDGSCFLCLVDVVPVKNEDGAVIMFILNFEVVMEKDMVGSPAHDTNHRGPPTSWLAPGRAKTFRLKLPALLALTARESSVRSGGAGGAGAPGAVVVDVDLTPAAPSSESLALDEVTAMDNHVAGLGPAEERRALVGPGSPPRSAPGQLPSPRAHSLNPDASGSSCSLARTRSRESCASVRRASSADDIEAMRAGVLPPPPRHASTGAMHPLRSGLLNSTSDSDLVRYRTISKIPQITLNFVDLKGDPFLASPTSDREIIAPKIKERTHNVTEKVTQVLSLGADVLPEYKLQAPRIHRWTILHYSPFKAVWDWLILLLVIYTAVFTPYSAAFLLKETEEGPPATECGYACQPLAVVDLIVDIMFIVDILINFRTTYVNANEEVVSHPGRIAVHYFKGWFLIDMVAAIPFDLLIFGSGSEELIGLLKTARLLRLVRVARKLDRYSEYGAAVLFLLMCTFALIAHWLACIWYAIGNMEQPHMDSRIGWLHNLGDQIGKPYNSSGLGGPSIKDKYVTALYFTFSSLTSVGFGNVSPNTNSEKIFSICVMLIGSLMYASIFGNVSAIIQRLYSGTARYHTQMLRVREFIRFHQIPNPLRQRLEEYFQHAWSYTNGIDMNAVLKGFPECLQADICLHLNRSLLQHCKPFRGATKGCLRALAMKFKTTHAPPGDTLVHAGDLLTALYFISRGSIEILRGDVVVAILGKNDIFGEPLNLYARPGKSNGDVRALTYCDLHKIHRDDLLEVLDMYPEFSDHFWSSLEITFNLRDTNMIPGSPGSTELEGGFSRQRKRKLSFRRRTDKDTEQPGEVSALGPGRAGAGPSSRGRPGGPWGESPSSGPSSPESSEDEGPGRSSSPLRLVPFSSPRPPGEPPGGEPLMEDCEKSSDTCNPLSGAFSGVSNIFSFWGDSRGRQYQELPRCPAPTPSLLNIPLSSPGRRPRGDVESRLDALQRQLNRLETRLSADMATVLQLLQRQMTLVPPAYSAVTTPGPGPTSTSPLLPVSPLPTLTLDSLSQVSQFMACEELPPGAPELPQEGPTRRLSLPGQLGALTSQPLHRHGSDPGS

[10] = Toxicity in cynomolgous monkey assessed as increase in fluid feces at 90 to 200 mg/kg/day for 28 days consecutively; assay type: organism-based, Macaca fascicularis; settings: cynomolgus monkey, in vivo, 672 h; dose 90-200 mg/kg/day, time 28 day
[11] = Volume of distribution at steady state in Cynomolgous monkey at 5 mg/kg, po or 1 mg/kg, iv measured upto 24 hrs by LC-MS/MS analysis; assay type: ADME, organism-based, Macaca fascicularis; settings: cynomolgus monkey, in vivo
[12] = AUC (0 to t) in female cynomolgous monkey at 30 mg/kg/day for 28 days; assay type: ADME, organism-based, Macaca fascicularis; settings: cynomolgus monkey, in vivo, time 28 day
Cytochrome P450 2B6 = target: T1, Cytochrome P450 2B6 (Homo sapiens, UniProt P20813); assay: Induction of CYP2B6 in human hepatocytes at 50 uM incubated for 48 hrs with media containing compound renewal every 24 hrs followed by substrate addition measured after 30 mins by LC-MS/MS analysis; assay type: ADME, cell-based, Hepatocyte; settings: 48.5 h
T1 sequence (P20813 whole entry): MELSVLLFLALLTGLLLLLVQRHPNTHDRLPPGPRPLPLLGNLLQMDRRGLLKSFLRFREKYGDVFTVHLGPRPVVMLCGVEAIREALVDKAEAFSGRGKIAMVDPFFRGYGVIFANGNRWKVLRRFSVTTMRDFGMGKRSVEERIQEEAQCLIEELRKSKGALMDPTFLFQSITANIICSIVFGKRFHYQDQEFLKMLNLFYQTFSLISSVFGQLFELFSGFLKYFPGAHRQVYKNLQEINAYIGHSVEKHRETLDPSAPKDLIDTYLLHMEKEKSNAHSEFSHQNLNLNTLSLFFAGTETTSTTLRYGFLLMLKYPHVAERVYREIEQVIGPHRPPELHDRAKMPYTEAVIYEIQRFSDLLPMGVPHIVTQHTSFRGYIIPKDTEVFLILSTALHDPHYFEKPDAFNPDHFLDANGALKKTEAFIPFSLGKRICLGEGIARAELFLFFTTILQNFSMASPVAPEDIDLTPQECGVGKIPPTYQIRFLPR

[13] = Cmax in Cynomolgous monkey at 5 mg/kg, po measured upto 24 hrs by LC-MS/MS analysis; assay type: ADME, organism-based, Macaca fascicularis; settings: cynomolgus monkey, in vivo
[14] = Half life in Beagle dog at 5 mg/kg, po measured upto 24 hrs by LC-MS/MS analysis; assay type: ADME, organism-based, Canis lupus familiaris; settings: in vivo
[15] = Tmax in Tufted capuchin monkey at 10 mg/kg, po measured for 24 hrs by LC-MS/MS analysis; assay type: ADME, organism-based; settings: sapajus apella, in vivo
[16] = Toxicity in cynomolgous monkey assessed as development-limiting effect; design: species or system Macaca fascicularis; settings: cynomolgus monkey, in vivo
[17] = Toxicity in monkey; design: species or system Macaca mulatta; settings: rhesus monkey, in vivo
[18] = Toxicity in rat assessed as mucosal necrosis in pylorus at 120 mg/kg/day for 28 days by H and E staining based analysis; assay type: organism-based; settings: in vivo, 672 h, time 28 day
[19] = Ratio of drug concentration in Sprague-Dawley rat liver to plasma at 3 mg/kg, po measured for 24 hrs by LC-MS/MS analysis; assay type: ADME, organism-based; settings: liver and plasma
[20] = Toxicity in rat assessed as decrease in body weight at 120 mg/kg/day for 28 days; assay type: organism-based; settings: in vivo, 672 h, time 28 day
[21] = Stability in dog liver microsomes assessed as half life at 1 uM measured upto 60 mins in presence of NADPH by LC-MS/MS analysis; assay type: ADME, Canis lupus familiaris, Microsome
[22] = Cmax in Tufted capuchin monkey at 30 mg/kg, po measured for 24 hrs by LC-MS/MS analysis; assay type: ADME, organism-based; settings: sapajus apella, in vivo
[23] = Cmax in Tufted capuchin monkey at 100 mg/kg, po measured for 24 hrs by LC-MS/MS analysis; assay type: ADME, organism-based; settings: sapajus apella, in vivo
[24] = Stability in rat liver microsomes assessed as half life at 1 uM measured upto 60 mins in presence of NADPH by LC-MS/MS analysis; assay type: ADME, Microsome
[25] = AUC (0 to t) in male cynomolgous monkey at 30 mg/kg/day for 28 days; assay type: ADME, organism-based, Macaca fascicularis; settings: cynomolgus monkey, in vivo, time 28 day
[26] = Half life in Cynomolgous monkey at 5 mg/kg, po measured upto 24 hrs by LC-MS/MS analysis; assay type: ADME, organism-based, Macaca fascicularis; settings: cynomolgus monkey, in vivo
[27] = Toxicity in rat assessed as increase in liver weight at 60 to 120 mg/kg/day for 28 days; assay type: organism-based; settings: in vivo, 672 h, dose 60-120 mg/kg/day, time 28 day
[28] = Toxicity in rat assessed as increase in ALP level at 120 mg/kg/day for 28 days; assay type: organism-based; settings: in vivo, 672 h, time 28 day
[29] = Toxicity in cynomolgous monkey assessed as distended abdomen at 200 mg/kg/day for 28 days consecutively; assay type: organism-based, Macaca fascicularis; settings: cynomolgus monkey, in vivo, 672 h, time 28 day
[30] = Oral bioavailability in overnight-fasted Sprague-Dawley rat at 5 mg/kg measured upto 24 hrs by LC-MS/MS analysis; assay type: ADME, organism-based; settings: in vivo
[31] = Toxicity in cynomolgous monkey assessed as increase in salivation at 90 to 200 mg/kg/day for 28 days consecutively; assay type: organism-based, Macaca fascicularis; settings: cynomolgus monkey, in vivo, 672 h; dose 90-200 mg/kg/day, time 28 day
[32] = Genotoxicity in Salmonella typhimurium TA102 by Ames test; assay type: toxicity; settings: salmonella enterica subsp. enterica serovar typhimurium
[33] = Cmax in overnight-fasted Sprague-Dawley rat at 5 mg/kg, po measured upto 24 hrs by LC-MS/MS analysis; assay type: ADME, organism-based; settings: in vivo
[34] = AUC (last) in overnight-fasted Sprague-Dawley rat at 1 mg/kg, iv measured upto 24 hrs by LC-MS/MS analysis; assay type: ADME, organism-based; settings: in vivo
[35] = Toxicity in rat administered daily for 28 days; settings: in vivo, time 28 day
[36] = AUC (last) in Cynomolgous monkey at 5 mg/kg, po measured upto 24 hrs by LC-MS/MS analysis; assay type: ADME, organism-based, Macaca fascicularis; settings: cynomolgus monkey, in vivo
[37] = Half life in Tufted capuchin monkey at 10 mg/kg, po measured for 24 hrs by LC-MS/MS analysis; assay type: ADME, organism-based; settings: sapajus apella, in vivo

## N#Cc1cc(-c2ccc(C(=O)O)c(O)c2)c2oc(F)cc2c1
[1]
  Activity: Non-Toxic
[2]
  half-life at 1 µM: 2.87 h
[3]
  NOAEL at 672 h: 30 mg/kg/day
[4]
  bioavailability: 69.9%
[5]
  Vdss: 1.71 L/kg
[6]
  AUC(0-t) at 24 h: 302 µg·h/mL
[7]
  MTD: 450 mg/kg
Sapajus apella
  Activity: 29.26 µg·h/mL
Cytochrome P450 2D6
  pIC50: < 4.30
[8]
  clearance: 1.51 mL/min/kg
[9]
  pIC50: < 4.28
[10]
  Activity: Toxic
[11]
  Vdss: 0.297 L/kg
[12]
  AUC(0-t) at 672 h: 336 µg·h/mL
Cytochrome P450 2B6
  Activity: < 20%
[13]
  Cmax: 3360 ng/mL
[14]
  half-life: 2.82 h
[15]
  Tmax: 0.8 h
[16]
  Activity: Non-Toxic
[17]
  MTD: 1000 mg/kg
[18]
  Activity: Toxic
[19]
  Kp at 24 h: 1.17
[20]
  Activity: Toxic
[21]
  half-life at 1 µM: 21.1 h
[22]
  Cmax: 16700 ng/mL
[23]
  Cmax: 145000 ng/mL
[24]
  half-life at 1 µM: 3.38 h
[25]
  AUC(0-t) at 672 h: 339 µg·h/mL
[26]
  half-life: 7.9 h
[27]
  Activity: Toxic
[28]
  Activity: Toxic
[29]
  Activity: Toxic
[30]
  bioavailability: 145%
[31]
  Activity: Toxic
[32]
  Activity: Non-Toxic
[33]
  Cmax: 17200 ng/mL
[34]
  AUC(0-t) at 24 h: 10.9 µg·h/mL
[35]
  NOAEL at 672 h: 60 mg/kg/day
[36]
  AUC(0-t) at 24 h: 34.2 µg·h/mL
[37]
  half-life: 1.52 h
